Results published in patent publication US20140073651A1, “BENZAMIDE DERIVATIVES AS P2X7 RECEPTOR ANTAGONISTS” (Actelion Pharmaceuticals Ltd., priority 2011, published 2014).

biological target: T1, human recombinant P2X7 receptor (Homo sapiens, UniProt Q99572); experiment: YO-PRO assay (YO-PRO-1 uptake) in HEK cells stably expressing P2X7; format: cell-based; conditions: HEK-293 cells expressing human recombinant P2X7 receptor; ATP 250 μM, 90 minutes; YO-PRO-1 fluorescence (FLIPR tetra); read-out: IC50 (antagonistic activity with respect to the P2X7 receptor)
T1 construct: expressed in transfected cells
T1 sequence (Q99572 1-595): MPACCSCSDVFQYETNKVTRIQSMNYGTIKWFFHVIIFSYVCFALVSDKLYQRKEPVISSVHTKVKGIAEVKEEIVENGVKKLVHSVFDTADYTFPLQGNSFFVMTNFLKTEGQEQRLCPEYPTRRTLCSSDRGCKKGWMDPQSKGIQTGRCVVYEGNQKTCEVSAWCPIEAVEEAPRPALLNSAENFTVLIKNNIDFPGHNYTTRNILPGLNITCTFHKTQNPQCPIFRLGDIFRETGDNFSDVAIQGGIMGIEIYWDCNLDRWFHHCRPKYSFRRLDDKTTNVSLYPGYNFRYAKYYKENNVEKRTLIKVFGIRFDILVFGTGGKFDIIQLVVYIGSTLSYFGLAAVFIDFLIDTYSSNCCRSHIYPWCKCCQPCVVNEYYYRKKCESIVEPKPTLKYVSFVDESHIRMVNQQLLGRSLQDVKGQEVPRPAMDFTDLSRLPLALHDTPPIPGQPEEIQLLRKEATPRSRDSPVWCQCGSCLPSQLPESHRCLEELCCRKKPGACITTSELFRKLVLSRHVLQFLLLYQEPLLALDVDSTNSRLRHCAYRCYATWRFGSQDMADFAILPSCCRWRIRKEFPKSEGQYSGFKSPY
Protocol: Cell line generation was performed in general according to established molecular cloning protocols. Specifically, RNA was extracted from human whole blood using the Qiagen RNeasy kit (Qiagen, CH) according to the manufacturer's instructions. Subsequently cDNA was made (Superscript II, Invitrogen AG, CH) and the human P2X7 gene (genbank ref. BC011913) was amplified with the following primers: [NT] and [NT] The amplified sequence was subsequently ligated into a pcDNA3.1 (+) NotI, NheI digested plasmid. […] Following a 24 h exposure to DNA, cells were trypsinized and re-seeded at low density in the presence of 250 μg Geneticin. Geneticin resistant cells were then selected during two consecutive rounds of cloning by serial limiting dilution with visual inspection. Individual clones were screened for P2X7 expression by applying ATP and recording the resultant uptake of YO-[…]. Specific cell clones were chosen based on RNA and protein expression. HEK cells stably expressing P2X7 were used to screen drugs using the YO-[…] assay. Cells were grown to confluency in adherent culture at 37° C. in a humidified 5% CO2 incubator (split 1/5 every 3-4 days with DMEM, 10% FCS, 1% Penicillin/Streptomycin, 250 μg/ml Geneticin). Adherent cells were detached by incubation with Trypsine (1 ml per 165 cm^2 dish) for 2 minutes, then washed off with 10 ml PBS (without Mg^2+ and Ca^2+), and resuspended in DMEM, 10% FCS, 1% Penicillin/Streptomycin, no Geneticin. 10'000 cells per well (48 hours before the assay) or 25'000 cells per well (Vi-cell XR (Beckman Coulter) (24 hours before the assay) in 50 μl full medium were seeded on 384-well black-wall, clear bottom plates, that were coated before with 10 μl per well Poly-L-Lysine, incubated for 30-60 minutes at 37° C. and washed once with PBS. Medium was removed from cells and 50 μl of assay buffer containing 0.5 μM YO-[…] was added into the wells. Solutions of antagonist compounds were prepared by serial dilutions of a 10 mM DMSO solution of the antagonist into PBS using a BioMek (Beckman Coulter). Each concentration was performed in duplicate. […] During this time period, four time points were taken. Each time point comprised the average of several measurements made within a few seconds. […] The FLIPR tetra was equipped with Molecular Devices Screen Works system control software to define and run experimental protocols. […] For IC50 measurements the maximum intensity is plotted against the concentration of compound to determine IC50 values.

| Structure (SMILES) | IC50 |
| --- | --- |
| O=C(NCC1(O)CCCCC1)c1cc(Nc2cncnc2)ccc1Cl [Example 76, 2-Chloro-N-(1-hydroxy-cyclohexylmethyl)-5-(pyrimidin-5-ylamino)-benzamide] | 418 nM |
| COc1ccc(N(C)c2ccc(Cl)c(C(=O)NCC3(O)CCCCC3)c2)nn1 [Example 91, 2-Chloro-N-(1-hydroxy-cyclohexylmethyl)-5-[(6-methoxy-pyridazin-3-yl)-methyl-amino]-benzamide] | 354 nM |
| O=C(NCC1(O)CCCCC1)c1cc(Sc2ccnc(Cl)n2)ccc1Cl [Example 135, 2-Chloro-5-(2-chloro-pyrimidin-4-ylsulfanyl)-N-(1-hydroxy-cyclohexylmethyl)-benzamide] | 266 nM |
| CN(c1ccc(Cl)c(C(=O)NCC2(O)CCCCC2)c1)c1ccc(Cl)nn1 [Example 89, 2-Chloro-5-[(6-chloro-pyridazin-3-yl)-methyl-amino]-N-(1-hydroxy-cyclohexylmethyl)-benzamide] | 271 nM |
| O=C(NCC1(O)CCCCC1)c1cc(N(CCOc2ccccc2)c2cc[nH]c(=O)n2)ccc1Cl [Example 39, 2-Chloro-N-(1-hydroxy-cyclohexylmethyl)-5-[(2-oxo-1,2-dihydro-pyrimidin-4-yl)-(2-phenoxy-ethyl)-amino]-benzamide] | 378 nM |
| COc1nccc(N(Cc2ccccc2)c2ccc(Cl)c(C(=O)NCC3(O)CCCCC3)c2)n1 [Example 31, 5-[Benzyl-(2-methoxy-pyrimidin-4-yl)-amino]-2-chloro-N-(1-hydroxy-cyclohexylmethyl)-benzamide] | 566 nM |
| COC1(CNC(=O)c2cc(N(C)c3ccnc(Cl)n3)ccc2Cl)CCCCC1 [Example 51, 2-Chloro-5-[(2-chloro-pyrimidin-4-yl)-methyl-amino]-N-(1-methoxy-cyclohexylmethyl)-benzamide] | 460 nM |
| O=C(NCC1(O)CCCCC1)c1cc(Cn2cccnc2=O)ccc1Cl [Example 143, 2-Chloro-N-(1-hydroxy-cyclohexylmethyl)-5-(2-oxo-2H-pyrimidin-1-ylmethyl)-benzamide] | 377 nM |

Molecules with a lower IC50, results first:

| IC50 | Structure (SMILES) |
| --- | --- |
| 47 nM | O=C(NCC1(O)CCCCC1)c1cc(Oc2ccccn2)ccc1Cl [Example 105, 2-Chloro-N-(1-hydroxy-cyclohexylmethyl)-5-(pyridin-2-yloxy)-benzamide] |
| 57 nM | CNc1cncc(N(C)c2ccc(Cl)c(C(=O)NCC3(O)CCCCC3)c2)n1 [Example 83, 2-Chloro-N-(1-hydroxy-cyclohexylmethyl)-5-[methyl-(6-methylamino-pyrazin-2-yl)-amino]-benzamide] |
| 100 nM | O=C(NCC1(O)CCCCC1)c1cc(Oc2ccncn2)ccc1Cl [Example 114, 2-Chloro-N-(1-hydroxy-cyclohexylmethyl)-5-(pyrimidin-4-yloxy)-benzamide] |
| 158 nM | CN(c1ccc(Cl)c(C(=O)NCC2(O)CCCCC2)c1)c1cc(S(C)(=O)=O)ncn1 [Example 66, 2-Chloro-N-(1-hydroxy-cyclohexylmethyl)-5-[(6-methanesulfonyl-pyrimidin-4-yl)-methyl-amino]-benzamide] |
| 65 nM | CN(C)c1cncc(N(C)c2ccc(Cl)c(C(=O)NCC3(O)CCCCC3)c2)n1 [Example 84, 2-Chloro-5-[(6-dimethylamino-pyrazin-2-yl)-methyl-amino]-N-(1-hydroxy-cyclohexylmethyl)-benzamide] |
| 18 nM | CCCN(c1ccc(Cl)c(C(=O)NCC2(O)CCCCC2)c1)c1cc[nH]c(=O)n1 [Example 23, 2-Chloro-N-(1-hydroxy-cyclohexylmethyl)-5-[(2-oxo-1,2-dihydro-pyrimidin-4-yl)-propyl-amino]-benzamide] |
| 77 nM | O=C(c1ccc(Cl)c(C(=O)NCC2(O)CCCCC2)c1)c1cc[nH]c(=O)n1 [Example 150, 2-Chloro-N-(1-hydroxy-cyclohexylmethyl)-5-(2-oxo-1,2-dihydro-pyrimidine-4-carbonyl)-benzamide] |
| 96 nM | Cn1c(Oc2ccc(Cl)c(C(=O)NCC3(O)CCCCC3)c2)cccc1=O [Example 113, 2-Chloro-N-(1-hydroxy-cyclohexylmethyl)-5-(1-methyl-6-oxo-1,6-dihydro-pyridin-2-yloxy)-benzamide] |
